Converted amounts (≈) assume the structure as drawn. No end group written: not given here.
Experiments:
fresh mice erythrocytes = format: cell-based, mouse; conditions: 30 min, PBS pH 7.4
Source text: Peptide and different pH of culture medium prepared. The pH of BHI medium was adjusted by HCl and NaOH. All peptides, including lycosin- I, pHly-1, s-pHly-1 were synthesized on a Rink amide-AM resin using the SPPS
(9- fluorenyl-methoxycarbonyl solid-phase peptide synthesis) method as reported previously1. Then peptides were cleaved from the resin using TFA/1,2- ethanedithiol/thioanisole/anisole (90/5/3/2 (v/v)), precipitated in cold diethyl ether and the collected precipitate was dried by air -drying . The prepared peptides were purified by reverse phase- HPLC (RP-HPLC) and their molecular weights were determined by MALDI-TOF MS.
Hemolytic assay. Approximately 4 % (in volume) of the mouse erythrocyte s were prepared by diluting fresh erythrocytes to 25-fold dilution with PBS buffer (pH 7.4).
The stock peptide solution ([…]) diluted by PBS solution to reach various concentrations (200 μL) was placed in a 1.5 mL sterile microfuge tube, followed by the addition of 200 μ L o f erythrocyte suspension. The mixture was incubated at 37 °C for 30 min. Then, the mixture was centrifuged at 3,500 rpm for 5 min to collect the supernatant. Aliquots (100 μL) of the supernatant were removed to 96-well plates, and the absorbance was detected at 450 nm using a microplate reader (Multiskan Spectrum, BioTek Inc., USA). Untreated erythrocyte suspension in an equal volume of PBS solution and 0.1% Triton X-100 were used as the negative control and positive […]
Isolation and culture of clinical S.mutans strains. Ethical approval of the study and the written consent/permission forms were obtained from Institutional Review Board (IRB) at Hunan Normal University prior to the study. For each child, written permission form was reviewed and signed by their legal guardians. Plaque -biofilm samples were collected from patients, including 16 Middle-aged and young patients and 4 children (age between 48 and 72 months) diagnosed with severe early childhood caries (S-ECC) in Changsha Stomatological Hospital. […]

[1] = test system: S. mutans UA159 (ATCC 700610); test: Minimal inhibition concentration (MIC) determination, S. mutans UA159; format: cell-based; conditions: Streptococcus mutans, ATCC700610, BHI medium, 48 h, A600
Protocol: Minimal inhibition concentration (MIC) determination . S.mutans UA159 (ATCC 700610) and 20 clinical S.mutans strains were used. S.mutans UA159 was purchased from Shanghai Biofeng Biotechnology Co., LTD. These bacteria grown in brain heart infusion broth (BHI, Beijing Land Bridge, China) at 37 °C under anaerobic conditions.
Due to bacteria incubation under the condition of excessive acid for a long time will affect its vitality, therefore, pH 5.5 was choose as acidic condition for the MIC determination. Peptides and CHX were dissolved in BHI medium of different pHs (pH 5.5 and 7.0) using serial dilutions to obtain different diluted solutions. 2 µL of bacteria (1×10^7 CFU (colony forming units) in the logarithmic phase were added into each well of 96-well plates containing 200 µL different diluted solutions. Note that […]
the aggregate behavior of peptides. In order to avoid interfering with the MIC test, it is important to set up the control wells which only contain different concentrations of peptides in BHI medium of different pHs. The absorbance at 600 nm was detected with a microplate reader (Multiskan Spectrum, BioTek Inc., USA) after 48 h. The inhibition rate of drugs on bacteria was calculated based on the absorbance […]
The SYTO 9 / PI double staining and scanning electron microscopy (SEM) were also performed to evaluate the bacterial killing and bacterial membrane disruption. […]

[2] = test system: human gingival fibroblast (HGF-1); test: Cytotoxicity, CCK-8 assay; format: cell-based; conditions: HGF1
Source text: Figure S12. H&E staining of gingival, palatal and gastric tissues(Scale bar: 100
Supplementary Fig.13. The toxicity of pHly -1 NPs to human gingival fibroblast
(HGF-1) was assessment by CCK-8 assay. DMEM medium(10 % FBS) was used
for cell culture and DMEM m edium was used for drug preparation in toxicity tests.
The All of the data are represented as average±SD. Each experiment consists of 3 […]

Compound | hemolysis (fresh mice erythrocytes; 500 μM) | HC50 (fresh mice erythrocytes; 37 °C) | MIC ([1]; pH 5.5) | MIC ([1]; pH 7.0) | IC50 [2]
KIWFHAMHIIAHFIAHQHLHQHL-NH2 [pHly-1 NPs] | about 20% | > 500 µM | – | – | –
[H]/N=C(\N/C(=N/[H])NCCCCCCNC(=N)NC(=N)Nc1ccc(Cl)cc1)Nc1ccc(Cl)cc1 [CHX, chlorhexidine] | – | – | 0.5 µM (≈ 0.253 µg/mL) | 1 µM (≈ 0.505 µg/mL) | 4.9 µM

From article PMC9254247, “Dual-sensitive antibacterial peptide nanoparticles prevent dental caries” (Theranostics, 2022)
